Measurements reported in patent US7618985B2 (N.V. Organon, priority 2005, dated 2009).

Target: recombinant human ROCK-1 (Homo sapiens, UniProt Q13464)
Test: In-vitro inhibitory activity on recombinant human ROCK-1 (IMAP fluorescence polarisation, fluorescein-labelled peptide)
Format: biochemical
Details: for IC50: read-out: ROCK-I pIC50 (converted)
Description: In-Vitro Determination of Inhibitory Activity of Compounds of the Invention on Recombinant Human ROCK-1
10 μl of a 0.1 ng/μl solution of recombinant human ROCK-1 in assay buffer containing 2 mM dithiothreitol, is then added to each well, yielding a final test compound concentration of 10 μM. Following a one hour incubation at room temperature in the dark, enzyme activity is detected by adding 60 μl of IMAP binding reagent (Molecular Devices) to each well.

Chain of recombinant human ROCK-1 (Q13464 whole entry): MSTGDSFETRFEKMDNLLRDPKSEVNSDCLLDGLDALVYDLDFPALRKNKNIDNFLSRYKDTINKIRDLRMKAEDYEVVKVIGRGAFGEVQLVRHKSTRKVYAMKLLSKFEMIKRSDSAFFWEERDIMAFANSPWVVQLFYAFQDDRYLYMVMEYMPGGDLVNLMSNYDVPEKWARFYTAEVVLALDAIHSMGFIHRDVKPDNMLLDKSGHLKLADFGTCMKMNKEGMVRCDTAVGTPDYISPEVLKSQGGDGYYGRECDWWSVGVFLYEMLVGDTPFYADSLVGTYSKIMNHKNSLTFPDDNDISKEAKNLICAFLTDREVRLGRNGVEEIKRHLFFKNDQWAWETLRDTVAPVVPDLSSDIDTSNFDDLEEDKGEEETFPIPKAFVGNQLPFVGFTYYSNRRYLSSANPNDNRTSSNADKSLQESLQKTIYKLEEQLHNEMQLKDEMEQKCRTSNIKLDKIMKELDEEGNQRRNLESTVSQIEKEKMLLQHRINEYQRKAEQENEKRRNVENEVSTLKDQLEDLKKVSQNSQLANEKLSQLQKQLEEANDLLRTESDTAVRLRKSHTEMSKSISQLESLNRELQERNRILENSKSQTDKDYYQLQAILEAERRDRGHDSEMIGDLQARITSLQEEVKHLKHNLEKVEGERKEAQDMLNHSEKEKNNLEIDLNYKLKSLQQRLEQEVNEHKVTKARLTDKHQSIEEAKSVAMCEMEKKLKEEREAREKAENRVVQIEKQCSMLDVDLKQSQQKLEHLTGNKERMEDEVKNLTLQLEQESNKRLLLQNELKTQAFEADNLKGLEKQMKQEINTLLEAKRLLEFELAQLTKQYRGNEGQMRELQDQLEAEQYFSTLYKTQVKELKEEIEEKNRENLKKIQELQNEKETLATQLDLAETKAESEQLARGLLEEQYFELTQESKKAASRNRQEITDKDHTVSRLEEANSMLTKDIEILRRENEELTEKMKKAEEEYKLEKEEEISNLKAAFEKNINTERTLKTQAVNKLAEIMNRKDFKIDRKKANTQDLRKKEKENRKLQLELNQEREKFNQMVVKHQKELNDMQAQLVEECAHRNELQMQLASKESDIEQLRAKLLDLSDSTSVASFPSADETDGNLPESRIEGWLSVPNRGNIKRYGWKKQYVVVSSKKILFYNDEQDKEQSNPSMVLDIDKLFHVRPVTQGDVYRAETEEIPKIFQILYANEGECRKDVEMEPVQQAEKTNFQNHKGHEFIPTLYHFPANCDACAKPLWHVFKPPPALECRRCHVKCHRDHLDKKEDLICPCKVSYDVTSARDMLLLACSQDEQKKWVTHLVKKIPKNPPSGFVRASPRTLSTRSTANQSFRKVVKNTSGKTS

Structure (SMILES)	IC50	ROCK-I pIC50 (recombinant human ROCK-1, dose response curve, IC50 = concentration causing 50% inhibition of the enzymatic activity)
Nc1nccc2cc(OC3CCCN(Cc4cccs4)C3)ccc12 (stereo not drawn) [Example 7G, 6-(1-Thiophen-2-ylmethylpiperidin-3-yloxy)isoquinolin-1-ylamine]	251 nM	–
Nc1nccc2cc(S[C@H]3CCNC3)ccc12 [Example 13A, (S)-6-(Pyrrolidin-3-ylsulfanyl)isoquinolin-1-ylamine]	631 nM	–
O=c1[nH]ccc2cc(O[C@H]3CCCN(CCOc4ccccc4)C3)ccc12 [Example 32C, (S)-6-[1-(2-Phenoxyethyl)piperidin-3-yloxy]-2H-isoquinolin-1-one]	631 nM	–
CN1CCC(Oc2ccc3c(=O)[nH]ccc3c2)CC1 [Example 30G, 6-(1-Methylpiperidin-4-yloxy)-2H-isoquinolin-1-one]	631 nM	–
O=c1[nH]ccc2cc(OC3CCN(Cc4ccc[nH]4)CC3)ccc12 [Example 31G, 6-[1-(1 H-Pyrrol-2-ylmethyl)piperidin-4-yloxy]-2H-isoquinolin-1-one]	316 nM	–
Nc1nccc2cc(OC3CCCN(Cc4ccc[nH]4)C3)ccc12 (stereo not drawn) [Example 7F, 6-[1-(1H-Pyrrol-2-ylmethyl)piperidin-3-yloxy]isoquinolin-1-ylamine]	126 nM	–
COc1ccc(CN2CCCC(Oc3ccc4c(=O)[nH]ccc4c3)C2)cc1 (stereo not drawn) [Example 23D, 6-[1-(4-Methoxybenzyl)piperidin-3-yloxy]-2H-isoquinolin-1-one]	398 nM	–
Nc1nccc2cc(OC3CCCN(CCOc4ccccc4)C3)ccc12 (stereo not drawn) [Example 21, 6-[1-(2-Phenoxyethyl)piperidin-3-yloxy]isoquinolin-1-ylamine]	200 nM	–
Nc1nccc2cc(SC3CCCNC3)ccc12 (stereo not drawn) [Example 12, 6-(Piperidin-3-ylsulfanyl)isoquinolin-1-ylamine]	501 nM	–
Cc1ccc(CN2CCC(Oc3ccc4c(=O)[nH]ccc4c3)CC2)cc1 [Example 30A, 6-[1-(4-Methylbenzyl)piperidin-4-yloxy]-2H-isoquinolin-1-one]	–	6.1
O=c1[nH]ccc2cc(O[C@@H]3CCCN(CCOc4ccccc4)C3)ccc12 [Example 32E, (R)-6-[1-(2-Phenoxyethyl)piperidin-3-yloxy]-2H-isoquinolin-1-one]	251 nM	–
O=c1[nH]ccc2cc(OC3CCN(CCCO)CC3)ccc12 [Example 31C, 6-[1-(3-Hydroxypropyl)piperidin-4-yloxy]-2H-isoquinolin-1-one]	794 nM	–
O=c1[nH]cc(Br)c2cc(O[C@H]3CCCNC3)ccc12 [Example 29]	316 nM	–
O=c1[nH]ccc2cc(OC3CCCN(CC4CCCCC4)C3)ccc12 (stereo not drawn) [Example 33C, 6-(1-Cyclohexylmethylpiperidin-3-yloxy)-2H-isoquinolin-1-one]	501 nM	–
COc1cccc(CN2CCC(Oc3ccc4c(=O)[nH]ccc4c3)CC2)c1 [Example 31F, 6-[1-(3-Methoxybenzyl)piperidin-4-yloxy]-2H-isoquinolin-1-one]	398 nM	–
O=c1[nH]ccc2cc(OC3CCN(Cc4ccco4)CC3)ccc12 [Example 30E, 6-(1-Furan-2-ylmethylpiperidin-4-yloxy)-2H-isoquinolin-1-one]	501 nM	–
O=c1[nH]ccc2cc(OC3CCN(CCO)CC3)ccc12 [Example 31E, 6-[1-(2-Hydroxyethyl)piperidin-4-yloxy]-2H-isoquinolin-1-one]	794 nM	–
Cc1cc2c(N)nccc2cc1OC1CCCN(Cc2ccccc2)C1 (stereo not drawn) [Example 19A]	794 nM	–
O=C(CN1CCC[C@H](Oc2ccc3c(=O)[nH]ccc3c2)C1)c1ccccc1 [Example 32B, (S)-6-[1-(2-Oxo-2-phenylethyl)piperidin-3-yloxy]-2H-isoquinolin-1-one]	501 nM	–
Nc1nccc2cc(SC3CCNCC3)ccc12 [Example 13C, 6-(Piperidin-4-ylsulfanyl)isoquinolin-1-ylamine]	631 nM	–
Nc1nccc2cc(S[C@@H]3CCNC3)ccc12 [Example 13B, (R)-6-(Pyrrolidin-3-ylsulfanyl)isoquinolin-1-ylamine]	631 nM	–
CC(c1ccccc1)N1CCC[C@H](Oc2ccc3c(N)nccc3c2)C1 (stereo partly drawn) [Example 21G, (S)-6-[1-(1-Phenylethyl)piperidin-3-yloxy]isoquinolin-1-ylamine]	200 nM	–
Cc1ccc(CN2CCC[C@H](Oc3ccc4c(N)nccc4c3)C2)cc1 [Example 8B, (S)-6-[1-(4-Methylbenzyl)piperidin-3-yloxy]isoquinolin-1-ylamine]	158 nM	–
O=c1[nH]ccc2cc(SC3CCNCC3)ccc12 [Example 25, 6-(Piperidin4-ylsulfanyl)-2H-isoquinolin-1-one]	200 nM	–
